The record followed here is patent USRE37781E1, “Substituted cyclic carbonyls and derivatives thereof useful as retroviral protease inhibitors” (DuPont Pharmaceuticals Company, priority 1991, dated 2002).

In brackets after ≈: the same amount, converted by molar mass. Where only a bound is given, the exact number is not on record here.

In the first assay the test system is HIV-1 (RF) in MT-2 cells. Briefly: microbe, parasite or virus in culture. Particulars: Human immunodeficiency virus 1, MT2, 48 h, Table 2d; class symbols; read-out: IC90. The assay is classed as cell-based. In short, it runs like this: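 HIV-1 laboratory strains (RF, MN, IIIB) grown in H9 cells in RPMI 1640 with 5% FCS; infections in MT-2 cells. Viral RNA quantified by hybridization with biotinylated gag/pol capture probes on streptavidin plates and alkaline phosphatase-conjugated reporter probes; BH10 gag-pol in vitro transcripts serve as RNA standards.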
Regarding `O=C1N(CCCCCO)C(Cc2ccccc2)C(O)C(O)C(Cc2ccccc2)N1CCCCCO` (stereo not drawn) [Example 13H], the IC90 is under 10 µg/mL.
In the case of `O=C1N(CCCCC(O)CO)C(Cc2ccccc2)C(O)C(O)C(Cc2ccccc2)N1CCCCC(O)CO` (stereo not drawn) [Example 13I], the IC90 is over 100 µg/mL.
Same read-out and setting: as for `O=C1N(Cc2ccccc2)C(Cc2ccccc2)C(O)C(O)C(Cc2ccccc2)N1Cc1ccccc1` (stereo not drawn) [Example 13L], the figure is under 10 µg/mL.
Same read-out and setting: as for `O=C1N(Cc2ccc(CO)cc2)C(Cc2ccccc2)C(O)C(O)C(Cc2ccccc2)N1Cc1ccc(CO)cc1` (stereo not drawn) [Example 13M], the figure is under 10 µg/mL; as for `CCCCN1C(=O)N(CCCC)C(Cc2ccccc2)C(O)C(O)C1Cc1ccccc1` (stereo not drawn) [Example 13R], under 10 µg/mL; as for `O=C1N(Cc2ccc(CO)o2)C(Cc2ccccc2)C(O)C(O)C(Cc2ccccc2)N1Cc1ccc(CO)o1` (stereo not drawn) [Example 13X], over 100 µg/mL.
The same measure, in the same setting: as for `O=C1N(Cc2cccnc2Cl)C(Cc2ccccc2)C(O)C(O)C(Cc2ccccc2)N1Cc1cccnc1Cl` (stereo not drawn) [Example 14A], the figure is 10 to 100 µg/mL (≈ 17.3 to 173 µM); as for `CC(C)(C)Sc1ncccc1CN1C(=O)N(Cc2cccnc2SC(C)(C)C)C(Cc2ccccc2)C(O)C(O)C1Cc1ccccc1` (stereo not drawn) [Example 14B], under 10 µg/mL; as for `O=C1N(CC2CC2)C(Cc2ccccc2)C(O)C(O)C(Cc2ccccc2)N1c1ccccn1` (stereo not drawn) [Example 14D], under 10 µg/mL.

The assay is the same for the next values; noted with them: Table 2d; HIV RNA assay.
Take `Cl.Cl.O=C(Nc1cccc(CN2C(=O)N(Cc3cccc(NC(=O)c4ccncc4)c3)C(Cc3ccccc3)C(O)C(O)C2Cc2ccccc2)c1)c1ccncc1` (stereo not drawn) [Example 15AC]: the IC90 result is given as “+++ (+++=<10 μg/mL)”.
Same read-out and setting: in the case of `CN(C)Cc1nc(-c2cccc(CN3C(=O)N(Cc4cccc(-c5noc(CN(C)C)n5)c4)C(Cc4ccccc4)C(O)C(O)C3Cc3ccccc3)c2)no1.Cl.Cl` (stereo not drawn) [Example 15AO] it was “+++ (+++=<10 μg/mL)”.

The assay is the same for the next values; noted with them: Table 2d; class symbols.
For the molecule `COC(=O)CCCCCN1C(=O)N(CCCCCC(=O)O)C(Cc2ccccc2)C(O)C(O)C1Cc1ccccc1` (stereo not drawn) [Example 12I], the IC90 result is on record as “+ (+=>100 μg/mL)”.
For `NC(=O)Sc1cccc(CN2C(=O)N(Cc3cccc(SC(N)=O)c3)C(Cc3ccccc3)C(O)C(O)C2Cc2ccccc2)c1` (stereo not drawn) [Example 12Q], the IC90 result is recorded as “+ (+=>100 μg/mL)”.
On the same count and under the same terms, in the case of `O=C1N(CC2CC2)C(Cc2ccccc2)C(O)C(O)C(Cc2ccccc2)N1CC1CC1` (stereo not drawn) [Example 13J] it was “+++ (+++=<10 μg/mL)”; in that of `C=CCN1C(=O)N(CC=C)C(Cc2ccccc2)C(O)C(O)C1Cc1ccccc1` (stereo not drawn) [Example 13K], “+++ (+++=<10 μg/mL)”; in that of `O=C1NC(Cc2ccccc2)C(O)C(O)C(Cc2ccccc2)N1` (stereo not drawn) [Example 13P], “+ (+=>100 μg/mL)”.
On to `O=C1N(Cc2ccc(CO)cc2)C(Cc2ccccc2)C(O)C(O)C(Cc2ccccc2)N1Cc1ccc(CO)cc1` (stereo not drawn) [Example 13S], for which the concentration for an effect of 90% (IC90) result is recorded as “++ (++=10 to 100 μg/mL)”.
Same read-out and setting: as for `O=C1N(Cc2ccc3c(c2)CCNC3)C(Cc2ccccc2)C(O)C(O)C(Cc2ccccc2)N1Cc1ccc2c(c1)CCNC2` (stereo not drawn) [Example 13T], the entry is “+ (+=>100 μg/mL)”.
Consider `O=C1N(Cc2nccs2)C(Cc2ccccc2)C(O)C(O)C(Cc2ccccc2)N1Cc1nccs1` (stereo not drawn) [Example 13V], for which the IC90 entry is “++ (++=10 to 100 μg/mL)”.
On the same count and under the same terms, in the case of `CC(C)(C)OC(=O)c1ccc(CN2C(=O)N(Cc3ccc(C(=O)OC(C)(C)C)o3)C(Cc3ccccc3)C(O)C(O)C2Cc2ccccc2)o1` (stereo not drawn) [Example 13W] it was “+++ (+++=<10 μg/mL)”.
Turning to `O=C1N(Cc2cnccc2Cl)C(Cc2ccccc2)C(O)C(O)C(Cc2ccccc2)N1Cc1cnccc1Cl` (stereo not drawn) [Example 13Z], the IC90 result is reported as “+++ (+++=<10 μg/mL)”.
Same read-out and setting: in the case of `O=C1N(CC2CC2)C(Cc2ccccc2)C(O)C(O)C(Cc2ccccc2)N1CC1CC1` (stereo not drawn) [Example 13o] it was “++ (++=10 to 100 μg/mL)”; in that of `O=C1N(Cc2cnccc2O)C(Cc2ccccc2)C(O)C(O)C(Cc2ccccc2)N1Cc1cnccc1O` (stereo not drawn) [Example 14C], “+ (+=>100 μg/mL)”; in that of `Cc1cncc(O)c1CN1C(=O)N(Cc2c(C)cncc2O)C(Cc2ccccc2)C(O)C(O)C1Cc1ccccc1` (stereo not drawn) [Example 14K], “+ (+=>100 μg/mL)”.

The next assay addresses single-chain tethered dimer of HIV protease (Human immunodeficiency virus 1, UniProt P04585). Briefly: biochemical. The format is biochemical. Also on record: fused on or other part: A second copy of the same protease unit is joined to the first by a short peptide tether, giving one polypeptide. Particulars: Table 2d; HIV protease inhibition, HPLC method; read-out: HPLC K1.
For `Cl.Cl.O=C(Nc1cccc(CN2C(=O)N(Cc3cccc(NC(=O)c4ccncc4)c3)C(Cc3ccccc3)C(O)C(O)C2Cc2ccccc2)c1)c1ccncc1` (stereo not drawn) [Example 15AC], the Ki was under 10 nM.
The same measure, in the same setting: as for `CN(C)Cc1nc(-c2cccc(CN3C(=O)N(Cc4cccc(-c5noc(CN(C)C)n5)c4)C(Cc4ccccc4)C(O)C(O)C3Cc3ccccc3)c2)no1.Cl.Cl` (stereo not drawn) [Example 15AO], the figure is under 10 nM.

Still in this assay, the particulars now being: Table 2d; class symbols; read-out: HPLC K1.
In the case of `COC(=O)CCCCCN1C(=O)N(CCCCCC(=O)O)C(Cc2ccccc2)C(O)C(O)C1Cc1ccccc1` (stereo not drawn) [Example 12I], the Ki is under 10 nM.
Same read-out and setting: as for `NC(=O)Sc1cccc(CN2C(=O)N(Cc3cccc(SC(N)=O)c3)C(Cc3ccccc3)C(O)C(O)C2Cc2ccccc2)c1` (stereo not drawn) [Example 12Q], the figure is under 10 nM.
On the same count and under the same terms, as for `O=C1N(CC2CC2)C(Cc2ccccc2)C(O)C(O)C(Cc2ccccc2)N1CC1CC1` (stereo not drawn) [Example 13J], the figure is under 10 nM; as for `C=CCN1C(=O)N(CC=C)C(Cc2ccccc2)C(O)C(O)C1Cc1ccccc1` (stereo not drawn) [Example 13K], under 10 nM.
The same measure, in the same setting: in the case of `O=C1NC(Cc2ccccc2)C(O)C(O)C(Cc2ccccc2)N1` (stereo not drawn) [Example 13P] it was over 1000 nM.
With `O=C1N(Cc2ccc3c(c2)CCNC3)C(Cc2ccccc2)C(O)C(O)C(Cc2ccccc2)N1Cc1ccc2c(c1)CCNC2` (stereo not drawn) [Example 13T], the Ki lay in the range of 10 to 1000 nM.
On the same count and under the same terms, in the case of `O=C1N(Cc2nccs2)C(Cc2ccccc2)C(O)C(O)C(Cc2ccccc2)N1Cc1nccs1` (stereo not drawn) [Example 13V] it was 10 to 1000 nM.
Still for that read-out and setting: as for `CC(C)(C)OC(=O)c1ccc(CN2C(=O)N(Cc3ccc(C(=O)OC(C)(C)C)o3)C(Cc3ccccc3)C(O)C(O)C2Cc2ccccc2)o1` (stereo not drawn) [Example 13W], the figure is over 1000 nM; as for `O=C1N(Cc2cnccc2Cl)C(Cc2ccccc2)C(O)C(O)C(Cc2ccccc2)N1Cc1cnccc1Cl` (stereo not drawn) [Example 13Z], 10 to 1000 nM.
The same measure, in the same setting: in the case of `O=C1N(CC2CC2)C(Cc2ccccc2)C(O)C(O)C(Cc2ccccc2)N1CC1CC1` (stereo not drawn) [Example 13o] it was over 1000 nM; in that of `O=C1N(Cc2cnccc2O)C(Cc2ccccc2)C(O)C(O)C(Cc2ccccc2)N1Cc1cnccc1O` (stereo not drawn) [Example 14C], 10 to 1000 nM; in that of `Cc1cncc(O)c1CN1C(=O)N(Cc2c(C)cncc2O)C(Cc2ccccc2)C(O)C(O)C1Cc1ccccc1` (stereo not drawn) [Example 14K], 10 to 1000 nM.

Staying with this assay, now noted: read-out: HPLC K1; Table 2d; class symbols.
As to `O=C1N(CCCCCO)C(Cc2ccccc2)C(O)C(O)C(Cc2ccccc2)N1CCCCCO` (stereo not drawn) [Example 13H], the Ki was under 10 nM.
The same measure, in the same setting: in the case of `O=C1N(CCCCC(O)CO)C(Cc2ccccc2)C(O)C(O)C(Cc2ccccc2)N1CCCCC(O)CO` (stereo not drawn) [Example 13I] it was under 10 nM; in that of `O=C1N(Cc2ccccc2)C(Cc2ccccc2)C(O)C(O)C(Cc2ccccc2)N1Cc1ccccc1` (stereo not drawn) [Example 13L], under 10 nM.
The same measure, in the same setting: in the case of `O=C1N(Cc2ccc(CO)cc2)C(Cc2ccccc2)C(O)C(O)C(Cc2ccccc2)N1Cc1ccc(CO)cc1` (stereo not drawn) [Example 13M] it was under 10 nM; in that of `CCCCN1C(=O)N(CCCC)C(Cc2ccccc2)C(O)C(O)C1Cc1ccccc1` (stereo not drawn) [Example 13R], 10 to 1000 nM.
Still for that read-out and setting: in the case of `O=C1N(Cc2ccc(CO)cc2)C(Cc2ccccc2)C(O)C(O)C(Cc2ccccc2)N1Cc1ccc(CO)cc1` (stereo not drawn) [Example 13S] it was 10 to 1000 nM; in that of `O=C1N(Cc2ccc(CO)o2)C(Cc2ccccc2)C(O)C(O)C(Cc2ccccc2)N1Cc1ccc(CO)o1` (stereo not drawn) [Example 13X], 10 to 1000 nM.
Take `O=C1N(Cc2cccnc2Cl)C(Cc2ccccc2)C(O)C(O)C(Cc2ccccc2)N1Cc1cccnc1Cl` (stereo not drawn) [Example 14A]: the Ki fell in the range of 10 to 1000 nM.
Same read-out and setting: in the case of `CC(C)(C)Sc1ncccc1CN1C(=O)N(Cc2cccnc2SC(C)(C)C)C(Cc2ccccc2)C(O)C(O)C1Cc1ccccc1` (stereo not drawn) [Example 14B] it was 10 to 1000 nM; in that of `O=C1N(CC2CC2)C(Cc2ccccc2)C(O)C(O)C(Cc2ccccc2)N1c1ccccn1` (stereo not drawn) [Example 14D], 10 to 1000 nM.

What is called IC90 is the concentration at which the effect reaches the 90% level.
